For this assay, the system named is UCP3. Nature of the assay: Effects of Tempol on gene expression in mice, chip-based microarray of cardiac tissue. It counts as in vivo. The note with it: Tempol 5 mg/g of food from 14 to 31 months after birth. As to the method:
To assess the effects of Tempol on gene expression, Tempol was administered to experimental mice at a dose of 5 mg/g of food from 14 months to 31 months after birth. Mice receiving the same food without the addition of Tempol were used as a negative control. At the age of 31 months, the experimental animals were sacrificed and the hearts were surgically removed. The expression of a broad spectrum of genes in the cardiac tissue was assessed using chip-based microarray technology. Such chips are well known in the art and are widely used to assess gene expression.

As for `CC1(C)CC(O)CC(C)(C)N1[O]` [Tempol, 4-hydroxy-2,2,6,6-tetramethylpiperidine-1-oxyl], the “expression of UCP3” value (cardiac tissue, microarray) is recorded as “statistically significant increase in expression”. In addition, the “Fold change (UCP3 gene expression after Tempol administration)” value (vs. same food without Tempol, cardiac tissue per text (table title says adipose tissue), P-value 0.00) worked out at 1.57.

For the origin of these results see patent publication US20220378766A1, “[…] OF A GENE ENCODING AN […] BY TREATING A HUMAN SUBJECT WITH A NITROXIDE” (priority 2021, published 2022).
